Source: PMC5510889 (Metallomics : integrated biometal science, 2017)

Experiments:
[1] = target: T1, IsdG (Staphylococcus aureus, UniProt Q7A649); experiment: UV/Vis absorption-detected heme titration; type: binding
[2] = target: T2, IsdI (Staphylococcus aureus, UniProt Q7A827); experiment: UV/Vis absorption-detected heme titration; type: binding
[3] = target: T1, IsdG; experiment: Fluorescence-detected heme titration; type: binding
[4] = target: T2, IsdI; experiment: Fluorescence-detected heme titration; type: binding
[5] = target: T1, IsdG; experiment: Apomyoglobin competition assay; type: binding; conditions: ratio of koff values, IsdG–heme vs IsdI–heme
[6] = target: myoglobin; conditions: cited from earlier work
[7] = target: T1, IsdG; conditions: UV/Vis titration fitted to Michaelis-Menten model; cited from earlier work
[8] = target: T2, IsdI; conditions: UV/Vis titration fitted to Michaelis-Menten model; cited from earlier work
[9] = target: T1, IsdG; conditions: cited from earlier work

T2 sequence (Q7A827 whole entry): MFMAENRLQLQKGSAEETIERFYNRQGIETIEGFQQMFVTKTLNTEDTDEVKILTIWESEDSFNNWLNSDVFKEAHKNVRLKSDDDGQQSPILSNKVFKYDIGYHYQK
T1 sequence (Q7A649 whole entry): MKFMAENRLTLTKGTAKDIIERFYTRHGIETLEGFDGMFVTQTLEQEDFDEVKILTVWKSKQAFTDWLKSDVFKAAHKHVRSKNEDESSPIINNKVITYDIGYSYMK

Row | SMILES | Kd [1] | Kd [2] | Kd [3] | heme binding to IsdG tighter than heme binding to IsdI ([3]; ratio of fluorescence Kd values, IsdG vs IsdI) | Kd [4] | rate of heme dissociation from IsdG–heme slower than from IsdI–heme [5] | Kd for heme dissociation from myoglobin [6] | Kd for heme, IsdG, as reported in the literature [7] | Kd for heme, IsdI, as reported in the literature [8] | mode of inhibition of IsdG [9]
1 | C=CC1=C(C)c2cc3[n-]c(cc4nc(cc5[n-]c(cc1n2)c(C)c5CCC(=O)O)C(CCC(=O)O)=C4C)c(C)c3C=C.[Fe+3] [heme] | 34 ± 20 nM | 15 ± 10 nM | 1.4 ± 0.6 nM | nine-fold | 12.9 ± 1.3 nM | four-fold | femtomolar | micromolar | micromolar | –
2 | [N-]=[N+]=[N-] [azide] | – | – | – | – | – | – | – | – | – | uncompetitive inhibitors
